Structures are written as SMILES. The source made the active and inactive calls.

In assay [1] the target is T1, Calpain-2 catalytic subunit (Sus scrofa, UniProt P43367).
T1 sequence (P43367 whole entry): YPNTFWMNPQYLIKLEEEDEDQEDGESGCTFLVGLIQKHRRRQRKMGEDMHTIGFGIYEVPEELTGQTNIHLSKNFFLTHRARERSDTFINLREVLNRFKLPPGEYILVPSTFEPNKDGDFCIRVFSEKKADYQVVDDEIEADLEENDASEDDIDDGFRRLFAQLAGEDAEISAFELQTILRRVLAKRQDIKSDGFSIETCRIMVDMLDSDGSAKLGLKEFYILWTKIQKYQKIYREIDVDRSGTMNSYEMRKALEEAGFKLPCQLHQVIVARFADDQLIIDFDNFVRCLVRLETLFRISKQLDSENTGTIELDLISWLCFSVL
Briefly: pig calpain II inhibitor potency, dose response, biochemical, fluorogenic peptide substrate (AID 1420). Type of assay: functional.

Assay [2] deals with T2, Carboxy-terminal domain RNA polymerase II polypeptide A small phosphatase 1 (Homo sapiens, UniProt Q9GZU7).
T2 sequence (Q9GZU7 whole entry): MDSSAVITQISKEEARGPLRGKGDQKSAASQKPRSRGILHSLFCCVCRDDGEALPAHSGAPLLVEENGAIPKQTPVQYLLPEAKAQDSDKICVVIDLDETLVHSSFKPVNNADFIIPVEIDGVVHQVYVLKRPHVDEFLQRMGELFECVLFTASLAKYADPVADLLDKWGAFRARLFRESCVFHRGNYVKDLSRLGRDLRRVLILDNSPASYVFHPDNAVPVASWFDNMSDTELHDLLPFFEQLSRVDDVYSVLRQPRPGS
Briefly: inhibitors of CTDSP1, concentration-response testing, biochemical assay, absorbance-based, actives from ultra-high-throughput screening (AID 540297). It is filed as functional.

Assay [3] addresses T3, Replicative DNA helicase DnaB (Mycobacterium tuberculosis, UniProt P9WMR3).
T3 sequence (P9WMR3 whole entry): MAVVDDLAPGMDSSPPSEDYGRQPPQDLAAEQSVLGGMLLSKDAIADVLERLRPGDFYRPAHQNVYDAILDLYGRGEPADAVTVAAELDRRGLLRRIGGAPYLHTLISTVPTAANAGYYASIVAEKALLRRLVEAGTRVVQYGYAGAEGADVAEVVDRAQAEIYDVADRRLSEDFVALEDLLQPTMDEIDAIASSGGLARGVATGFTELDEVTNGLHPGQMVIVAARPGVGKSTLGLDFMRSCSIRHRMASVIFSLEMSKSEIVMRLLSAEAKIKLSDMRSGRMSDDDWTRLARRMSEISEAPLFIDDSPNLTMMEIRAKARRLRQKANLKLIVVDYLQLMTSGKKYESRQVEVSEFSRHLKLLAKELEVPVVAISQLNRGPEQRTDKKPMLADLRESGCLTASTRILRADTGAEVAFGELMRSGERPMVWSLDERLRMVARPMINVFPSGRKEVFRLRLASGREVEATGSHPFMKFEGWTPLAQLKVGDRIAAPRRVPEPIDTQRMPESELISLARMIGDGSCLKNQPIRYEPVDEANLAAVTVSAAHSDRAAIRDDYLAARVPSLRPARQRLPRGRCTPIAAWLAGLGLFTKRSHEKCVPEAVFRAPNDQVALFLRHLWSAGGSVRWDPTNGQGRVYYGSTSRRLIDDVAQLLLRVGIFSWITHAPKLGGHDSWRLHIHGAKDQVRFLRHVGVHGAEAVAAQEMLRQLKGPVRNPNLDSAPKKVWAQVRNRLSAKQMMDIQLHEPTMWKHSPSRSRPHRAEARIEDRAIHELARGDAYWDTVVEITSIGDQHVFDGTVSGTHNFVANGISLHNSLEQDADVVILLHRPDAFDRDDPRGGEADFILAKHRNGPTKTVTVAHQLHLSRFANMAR
Briefly: DnaB intein splicing inhibitors, dose response, biochemical, cell-free fluorescence (AID 449749). Type of assay: functional.

The next assay has as its target T4, Protein RecA (Mycobacterium tuberculosis, UniProt P9WHJ3).
T4 sequence (P9WHJ3 whole entry): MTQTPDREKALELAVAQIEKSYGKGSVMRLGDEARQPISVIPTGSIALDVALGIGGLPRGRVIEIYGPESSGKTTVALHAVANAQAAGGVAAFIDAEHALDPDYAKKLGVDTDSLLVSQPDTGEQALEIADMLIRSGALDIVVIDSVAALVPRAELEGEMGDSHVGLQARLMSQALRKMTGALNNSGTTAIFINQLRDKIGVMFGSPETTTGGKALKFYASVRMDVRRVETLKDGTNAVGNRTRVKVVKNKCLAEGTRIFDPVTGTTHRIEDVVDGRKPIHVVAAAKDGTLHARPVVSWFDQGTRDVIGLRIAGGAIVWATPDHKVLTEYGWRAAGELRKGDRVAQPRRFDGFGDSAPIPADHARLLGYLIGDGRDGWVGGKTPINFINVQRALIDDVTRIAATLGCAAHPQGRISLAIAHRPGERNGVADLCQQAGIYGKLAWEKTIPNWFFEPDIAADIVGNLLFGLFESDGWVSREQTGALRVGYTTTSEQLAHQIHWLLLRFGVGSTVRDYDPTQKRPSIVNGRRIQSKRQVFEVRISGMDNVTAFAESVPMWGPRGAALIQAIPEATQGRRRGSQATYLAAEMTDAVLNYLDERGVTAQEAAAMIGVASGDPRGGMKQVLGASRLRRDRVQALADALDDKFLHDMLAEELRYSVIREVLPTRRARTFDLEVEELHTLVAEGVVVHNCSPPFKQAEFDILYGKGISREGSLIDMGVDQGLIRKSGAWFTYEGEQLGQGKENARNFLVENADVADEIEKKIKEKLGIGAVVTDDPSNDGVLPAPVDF
Briefly: Fluorescence Cell-Free Homogeneous Dose Retest to Identify Inhibitors of RecA-Intein Splicing Activity. [Related pubchem assays (depositor defined):AID2097, AID2223, AID489010, AID492950]. It is filed as functional.

The test system of another assay is Vero. Briefly: cells. It is filed as functional. Particulars: Chlorocebus sabaeus.
Assay [4] can be described thus: Shn3 3'UTR reporter inhibitors, dose response, cell-based, Clone20 osteoblasts, firefly luciferase, cherry-picked (AID 624132).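 Note: firefly luciferase luminescence from reporter carrying the Shn3 3'UTR in osteoblasts.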 Type of assay: functional.
The nature of assay [5]: HepG2 cell cytotoxicity, dose response, cytotoxicity control for Shn3 inhibitor project, CellTiter-Glo, cherry-picked (AID 624134). It is filed as functional, cell-based. On the technique in general: In ATP-based viability assays light output follows the ATP content of the culture.
Assay [6] in a line: control 3'UTR Renilla luciferase suppression, dose response, counter-screen for Shn3 inhibitor project, cell-based, Clone20-Shn3RL, cherry-picked (AID 624133). It is filed as functional.
The target of assay [7] is T5, Heat shock factor protein 1 (Mus musculus, UniProt P38532).
T5 sequence (P38532 whole entry): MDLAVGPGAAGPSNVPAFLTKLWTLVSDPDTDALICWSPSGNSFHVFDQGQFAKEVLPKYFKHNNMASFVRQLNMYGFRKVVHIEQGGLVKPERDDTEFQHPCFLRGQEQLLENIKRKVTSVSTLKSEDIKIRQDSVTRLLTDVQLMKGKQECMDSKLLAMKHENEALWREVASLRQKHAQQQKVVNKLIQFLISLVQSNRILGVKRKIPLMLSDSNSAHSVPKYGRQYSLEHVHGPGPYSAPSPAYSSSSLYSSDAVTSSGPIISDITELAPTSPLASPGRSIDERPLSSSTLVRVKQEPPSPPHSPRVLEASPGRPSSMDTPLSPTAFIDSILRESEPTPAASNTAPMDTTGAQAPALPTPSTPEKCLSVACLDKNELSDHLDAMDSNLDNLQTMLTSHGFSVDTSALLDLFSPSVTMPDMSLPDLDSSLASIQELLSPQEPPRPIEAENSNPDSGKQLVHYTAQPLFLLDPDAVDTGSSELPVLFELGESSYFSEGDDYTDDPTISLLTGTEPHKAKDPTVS
Briefly: inhibition of MG132-induced HSE-luciferase signal, confirmation, cell-based, NIH3T3, luminescence, dose retest (AID 2382).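 Note: NIH3T3 fibroblasts with HSF1-driven luciferase reporter stressed by proteasome inhibitor MG132; luminescence from HSF1-driven luciferase expression after 8 hours of MG132 stress.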 Type of assay: functional.

A further assay concerns the target Paired box protein Pax-8 (Homo sapiens, UniProt Q06710). Briefly: inhibitors of PAX8-driven TPO luciferase reporter, dose response, RMG-I cells, cherry-pick (AID 687027).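 Note: luciferase reporter driven by Pax8 target thyroperoxidase promoter measured by SteadyGlo luminescence.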 Type of assay: functional, cell-based. (In general: In a reporter assay the amount or activity of a reporter protein is the signal.)

Sequence of Paired box protein Pax-8 (Q06710 whole entry): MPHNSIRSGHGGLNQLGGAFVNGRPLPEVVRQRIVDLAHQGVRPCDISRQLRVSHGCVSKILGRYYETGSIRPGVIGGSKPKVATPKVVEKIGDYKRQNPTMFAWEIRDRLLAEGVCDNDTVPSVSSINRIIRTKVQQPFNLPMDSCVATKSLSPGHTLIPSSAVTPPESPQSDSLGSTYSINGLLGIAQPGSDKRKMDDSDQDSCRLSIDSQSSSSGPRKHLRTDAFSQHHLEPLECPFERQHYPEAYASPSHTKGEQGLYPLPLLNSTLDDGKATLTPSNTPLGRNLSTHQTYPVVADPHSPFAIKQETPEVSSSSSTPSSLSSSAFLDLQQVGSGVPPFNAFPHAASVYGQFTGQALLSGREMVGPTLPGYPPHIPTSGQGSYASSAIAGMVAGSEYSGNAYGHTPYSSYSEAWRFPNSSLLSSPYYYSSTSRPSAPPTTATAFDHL

With `CC(C)CCNC(=O)C12CN(Cc3ccccc3)CC1C(c1ccc([N+](=O)[O-])cc1)=NO2` (stereo unspecified), the IC50 in [1] is given as 7.38 µM (not active).
For `CC(C)(O)CCCC(C)(O)c1ccc(C(=O)O)cc1O` (stereo unspecified), in assay [2], the IC50 is 9.75 µM (active).
As to `O=C(CCl)N1N=C(c2ccco2)CC1c1ccco1` (stereo unspecified), the AC50 in assay [3] is > 380 µM (inactive). Besides, on Protein RecA, the EC50 is 9.97 µM (active). Also, the CC50 in the assay on Vero was 9.82 µM (active).
As for `O=C(NNC(=O)c1cccc(S(=O)(=O)N2CCc3ccccc32)c1)c1ccccc1`, the AC50 in assay [4] was 1.52 µM (active); in assay [5] it was 46.2 µM (active); in assay [6] it was 3.89 µM (active).
For `O=C(OCCN1C(=O)c2ccccc2C1=O)c1ccc(S(=O)(=O)N2CCCCCC2)cc1`, the 50% inhibitory concentration (IC50) in [1] is > 50 µM (not active).
Same read-out and setting: under `Nn1c(SCC(=O)NC(=O)Nc2ccc3c(c2)OCCO3)nnc1C1CC1` stands 9.49 µM (not active).
For `CCCc1ccc(C(=O)NNC(=O)c2ccc(Cl)cc2)cc1`, the IC50 in assay [2] is 9.67 µM (active).
Same read-out and setting: in the case of `CC(=O)Nc1ccc(S(=O)(=O)N(C)CC(=O)OCC(=O)N2CCN(C(=O)c3ccco3)CC2)cc1` it was 9.38 µM (active).
With `Cc1cc(C)c(S(=O)(=O)Nc2ccc3c(c2)CCC3)c(C)c1`, in assay [1], the IC50 is 11.4 µM (not active).
As to `CC(C)Nc1nnc(Sc2ccc(Cl)cc2[N+](=O)[O-])s1`, the EC50 in assay [7] is on record as > 195 µM (not active). Moreover, the IC50 in assay [1] was 4.91 µM (not active).
Consider `O=C(COc1ccc2oc(-c3ccccc3)cc(=O)c2c1)NCc1ccco1`, for which the IC50 in assay [2] is 9.63 µM (active).
On the same count and under the same terms, under `COc1ccccc1NC(=O)c1nn(-c2ccc(Cl)cc2)ccc1=O` stands 9.88 µM (active).
For the compound `CCCN(CCC)C(=O)CC(c1ccccc1)c1cc(Br)ccc1O` (stereo unspecified), the IC50 in [1] was 16 µM (not active).
As for `COc1cccc(-c2ccc(NC(=O)C3CCCN(Cc4cnn(C(C)C)c4)C3)cc2)c1` (stereo unspecified), in the assay on Vero, the CC50 is > 25 µM (active).
`CC(C)(C)c1ccc(OCCNC(=S)Nc2ccccc2)cc1`: in assay [1], the IC50 was 8.08 µM (not active).
As to `CC(C)(C)N(Cc1ccccc1)C(=O)CCc1ccccc1`, the IC50 in [1] is 32.5 µM (not active).
For `C[N+]1(C2CCC3CCCC2C3O)CCCC1` (stereo unspecified), in assay [2], the IC50 is 6.98 µM (active).
On the same count and under the same terms, in the case of `CCn1c(=O)c(NC(=O)c2ccccc2)c2n(c1=S)CCCCC2` it was 8.47 µM (active).
As for `CC(=O)N1CCN(C(=O)CCc2cc(C(C)(C)C)c(O)c(C(C)(C)C)c2)CC1`, the AC50 in assay [4] is 4.46 µM (active); in assay [6] it was 14.5 µM (active).
Regarding `CC1C(=O)N(Cc2cn(CCC3OCCCO3)nn2)CCS(=O)(=O)N1Cc1ccc(-c2ccc(Cl)c(Cl)c2)cc1` (stereo unspecified), the AC50 in assay [4] is 3.39 µM (active); in [5], > 70 µM (inactive); in assay [6] it was 2.7 µM (active).
As for `Cc1ccc(-c2cc3nc(-c4ccccc4)cc(NCCCO)n3n2)cc1`, the CC50 in the assay with Vero is > 25 µM (active).
Regarding `C[C@H](NC(=O)c1ncn2c1c(O)nc1ccc(Br)cc12)c1ccccc1`, the figures for the AC50 in assay [4], in assay [5] and in assay [6] were 8.76 µM (active), 9.3 µM (active) and 16.2 µM (active), respectively.
As for `C#CCN(C[C@H]1[C@H](OC(=O)Nc2c(C)noc2C)[C@H](OC(=O)Nc2c(C)noc2C)C[C@@H](C(=O)OC)[C@H]1C(=O)OC)S(=O)(=O)c1ccc(C)cc1`, the AC50 on Paired box protein Pax-8 is 31.9 µM (active).
On to `C[C@H]1CCCCO[C@@H](CN(C)C)[C@@H](C)CN([C@@H](C)CO)C(=O)c2cc(NC(=O)Nc3ccc(C(F)(F)F)cc3)ccc2O1`, for which the AC50 at Paired box protein Pax-8 is 22.1 µM (active).
Same read-out and setting: under `C[C@@H]1CCCCO[C@H](CN(C)C(=O)Nc2ccc(F)cc2)[C@@H](C)CN([C@@H](C)CO)C(=O)c2cc(NC(=O)Nc3ccc(C(F)(F)F)cc3)ccc2O1` stands 2.58 µM (active); under `C[C@@H]1CCCCO[C@H](CN(C)Cc2ccc(C(F)(F)F)cc2)[C@H](C)CN([C@H](C)CO)C(=O)c2cc(NS(=O)(=O)c3ccc(F)cc3)ccc2O1`, 6.71 µM (active).

Usually IC50 stands for the point on the concentration scale where inhibition reaches its midpoint. What is called AC50 is the concentration at which the activity in the assay is half-maximal. The term EC50 denotes the midpoint of the concentration-response curve. Usually CC50 stands for the concentration that lowers cell viability or growth by half.

The values are drawn from ChEMBL document CHEMBL1201862, “PubChem BioAssay data set” (2004).
